According to patent US9308179B2, “Long circulating nanoparticles for sustained release of therapeutic agents” (BIND Therapeutics, Inc., priority 2008, dated 2016):
Where two headings read alike, the source gives them in different places. Marks after values point to notes of the source that are not given here.

Key:
MX-1 breast tumors = experiment: Tumor accumulation of docetaxel nanoparticles in MX-1 breast tumors; format: in vivo, mice; conditions: 10 mg/kg, 24 hours after injection, LC/MS/MS
Description: Mice were then injected with 10 mg/kg of the test article, then euthanized 24 hours later and the tumors were removed and analyzed for docetaxel content using LC/MS/MS. Results are depicted in FIG. 12.

[1] = 5 mg/kg, cited from earlier work
[2] = Pharmacokinetics of docetaxel nanoparticles in primates; format: in vivo, non human primates; design: Cmax/D / AUC/D: unit not given beside the values; conditions: for AUC / Cl / Vz / half-life / Cmax: 30 minute IV infusion; for half-life: in vivo
Description: 1 male and 1 female were used per dose group. The dosing day was 1 day and the formulations were administered by 30 minute IV infusion at 25 mg/m^2 docetaxel or 50 mg/m^2 docetaxel (animals were randomized and then dosed with 50 mg/m2 on day 29 and PK, hematology and clinical chemistry were measured for 21 days). At the end of the study, PK, hematology and clinical chemistry collected over a 21 day period were assessed. FIG. 12 depicts the results of male (M) and female (F) PNP.

[3] = Tumor docetaxel concentration after a single dose in human tumor xenograft model (LNCaP); format: in vivo, SCID mice; conditions: male, SCID, mouse
Description: Male severe combined immunodeficiency (SCID) mice were subcutaneously inoculated with human LNCaP prostate cancer cells. Three to four weeks after inoculation, the mice were assigned to different treatment groups such that the average tumor volume in each group was 300 mm^3. At this time, a single intravenous (IV) dose of 50 mg/kg docetaxel was administered as either docetaxel encapsulated in nanoparticles or conventional docetaxel. The test subjects were sacrificed 2 hour or 12 hour post-dose. The tumors from each group were excised and assayed for docetaxel using liquid chromatography-mass spectrometry (LC-MS).

[4] = Single dose pharmacokinetic study in Sprague-Dawley rats; format: in vivo; conditions: male, rat
Description: Six- to eight-week old male Sprague-Dawley rats were administered a single bolus dose (5 mg/kg of docetaxel) of docetaxel encapsulated in nanoparticles or conventional docetaxel via a tail vein. The dose groups consisted of six rats each. Blood was drawn at 0.083, 0.5, 1, 2, 3, 4, 6, and 24 hours post-dosing and processed to plasma. The concentration of total docetaxel in plasma was measured by a liquid chromatography-mass spectrometry (LC-MS) method following extraction with methyl tert-butyl ether (MTBE).

[5] = test system: human LNCaP prostate cancer cells; experiment: Anti-tumor activity after repeated doses in human tumor xenograft model (LNCaP); format: in vivo, SCID mice; conditions: Q2D for four doses, eight day holiday, another four doses; FIG. 7
Description: Male severe combined immunodeficiency (SCID) mice were subcutaneously inoculated with human LNCaP prostate cancer cells. Three to four weeks after inoculation, the mice were assigned to different treatment groups such that the average tumor volume in each group was 250 mm^3. Subsequently, the mice were treated every other day (Q2D) for four doses, with an eight day holiday, followed by another four doses at the Q2D schedule.

[6] = Acute dose range finding study in Sprague-Dawley rats; format: in vivo; conditions: 7 days
Description: Sixty Sprague-Dawley rats (30/sex) were assigned to 10 dose groups (3 rats/sex/group) and were administered a single dose of either docetaxel encapsulated in nanoparticles (5.7, 7.5, 10, 15 or 30 mg/kg body weight) or conventional docetaxel (5.7, 7.5, 10, 15 or 30 mg/kg body weight).

[7] = Tissue distribution of radioactivity in rats after IV administration; format: in vivo, Sprague-Dawley rats
Description: Six- to eight-week old male Sprague-Dawley rats were administered a single bolus intravenous dose of one of the following: (1) docetaxel encapsulated in nanoparticles in which the ligand of the PLA-PEG-lys(urea)glu targeting polymer was ^14C-labeled, (2) docetaxel encapsulated in nanoparticles in which the encapsulated docetaxel was ^14C-labeled, (3) ^14C-labeled conventional docetaxel.
Blood was drawn at 1, 3, 6, 12, and 24 hours post-dosing and processed to plasma. Immediately following blood collection, the rats were euthanized by CO2 asphyxiation and tissues were immediately collected, blotted, weighed, and frozen on dry ice. Tissue samples were stored frozen (approximately −70° C.) until analysis for radioactivity by liquid scintillation (LS) counting.

[8] = plasma, 5 mg/kg single IV bolus

CC(=O)O[C@@]12CO[C@@H]1C[C@H](O)[C@@]1(C)C(=O)[C@H](O)C3=C(C)[C@@H](OC(=O)[C@H](O)[C@@H](NC(=O)OC(C)(C)C)c4ccccc4)C[C@@](O)([C@@H](OC(=O)c4ccccc4)[C@H]21)C3(C)C [Conventional Docetaxel, docetaxel]
percent of injected dose in the tumor (MX-1 breast tumors): 3% | AUC0-∞ [1]: 910 ng·h/mL | CL [1]: 91.7 mL/min/kg | Cmax [1]: 4,100 ng/mL | t1/2 ([1]; study duration was 6 hours): 0.8^b h | tmax ([1]; tmax equals the first sampling time): 2 min | AUC/D ([2]; 25 mg/m2, F): 109 | Cmax/D ([2]; 25 mg/m2, F): 23.8 | AUC ([2]; 25 mg/m2, F): 2714 ng·h/mL | Cl ([2]; 25 mg/m2, F): 9213 mL/hr/m2 | Vz ([2]; 25 mg/m2, F): 412186 mL/m2 | AUC/D ([2]; 25 mg/m2, M): 102 | Cmax/D ([2]; 25 mg/m2, M): 14.6 | Cl ([2]; 25 mg/m2, M): 9794 mL/hr/m2 | Vz ([2]; 25 mg/m2, M): 253783 mL/m2 | AUC/D ([2]; 50 mg/m2, F): 72 | Cmax/D ([2]; 50 mg/m2, F): 16.7 | AUC ([2]; 50 mg/m2, F): 3599 ng·h/mL | Cl ([2]; 50 mg/m2, F): 13893 mL/hr/m2 | Vz ([2]; 50 mg/m2, F): 788340 mL/m2 | AUC/D ([2]; 50 mg/m2, M): 76.5 | Cmax/D ([2]; 50 mg/m2, M): 24.2 | Cl ([2]; 50 mg/m2, M): 13073 mL/hr/m2 | Vz ([2]; 50 mg/m2, M): 743682 mL/m2 | half-life ([2]; female, monkey, 25 mg/m2, F): 31 h | half-life ([2]; female, monkey, 50 mg/m2, F): 39 h | Cmax ([2]; female, monkey, plasma, 25 mg/m2, F): 596 ng/mL | Cmax ([2]; female, monkey, plasma, 50 mg/m2, F): 835 ng/mL | half-life ([2]; male, monkey, 25 mg/m2, M): 18 h | half-life ([2]; male, monkey, 50 mg/m2, M): 39 h | Cmax ([2]; male, monkey, plasma, 25 mg/m2, M): 364 ng/mL | AUC ([2]; male, monkey, plasma, 25 mg/m2, M, read-out: AUC): 2550 ng·h/mL | Cmax ([2]; male, monkey, plasma, 50 mg/m2, M): 1210 ng/mL | AUC ([2]; male, monkey, plasma, 50 mg/m2, M, read-out: AUC): 3280 ng·h/mL | concentration at 2 h ([3]; 2 h after single IV dose of 50 mg/kg docetaxel): 12900 ± 7900 ng/g | concentration at 12 h ([3]; 12 h after single IV dose of 50 mg/kg docetaxel): 3600 ± 2100 ng/g | Cmax ([4]; 5 mg/kg single IV bolus, total docetaxel in plasma): 600 ng/mL | AUC(0-inf) [4, 8]: 623 ng·h/mL | clearance [4, 8]: 38.8 mL/min/kg | tmax ([4]; plasma, 5 mg/kg single IV bolus, tmax equals the first sampling time): 5 min | half-life ([4]; plasma, iv, 5 mg/kg): 4.4 h | effect on tumor volume [5]: appreciable reduction in tumor volume | survival to scheduled necropsy ([6]; 5.7-30 mg/kg single dose): All test subjects survived | piloerection, female rats affected ([6]; female, Sprague-Dawley, rat, in vivo, 10 mg/kg): 1/9 | piloerection, male rats affected ([6]; male, Sprague-Dawley, rat, in vivo, 10 mg/kg): 5/9

CC(=O)O[C@@]12CO[C@@H]1C[C@H](O)[C@@]1(C)C(=O)[C@H](O)C3=C(C)[C@@H](OC(=O)[C@H](O)[C@@H](NC(=O)OC(C)(C)C)c4ccccc4)C[C@@](O)([C@@H](OC(=O)c4ccccc4)[C@H]21)C3(C)C [Conventional ^14C-Docetaxel, docetaxel]
Radioactivity in Bone Marrow ([7]; 1 h after IV administration): 97 ± 4.2 nCi/g | Radioactivity in Heart ([7]; 1 h after IV administration): 71 ± 2.5 nCi/g | Radioactivity in Large Intestine ([7]; 1 h after IV administration): 54 ± 3.6 nCi/g | Radioactivity in Liver ([7]; 1 h after IV administration): 78 ± 15 nCi/g | Radioactivity in Lungs ([7]; 1 h after IV administration): 82 ± 9.6 nCi/g | Radioactivity in Plasma ([7]; 1 h after IV administration): 4.9 ± 0.4 nCi/mL | Radioactivity in Small Intestine ([7]; 1 h after IV administration): 517 ± 99 nCi/g | Radioactivity in Spleen ([7]; 1 h after IV administration): 100 ± 9.4 nCi/g | Radioactivity in Bone Marrow ([7]; 3 h after IV administration): 83 ± 1.0 nCi/g | Radioactivity in Heart ([7]; 3 h after IV administration): 39 ± 1.5 nCi/g | Radioactivity in Large Intestine ([7]; 3 h after IV administration): 166 ± 37 nCi/g | Radioactivity in Liver ([7]; 3 h after IV administration): 49 ± 7.3 nCi/g | Radioactivity in Lungs ([7]; 3 h after IV administration): 66 ± 0.7 nCi/g | Radioactivity in Plasma ([7]; 3 h after IV administration): 1.9 ± 0.2 nCi/mL | Radioactivity in Small Intestine ([7]; 3 h after IV administration): 122 ± 43 nCi/g | Radioactivity in Spleen ([7]; 3 h after IV administration): 81 ± 7.5 nCi/g | Radioactivity in Bone Marrow ([7]; 6 h after IV administration): 78 ± 1.9 nCi/g | Radioactivity in Heart ([7]; 6 h after IV administration): 33 ± 1.3 nCi/g | Radioactivity in Large Intestine ([7]; 6 h after IV administration): 185 ± 82 nCi/g | Radioactivity in Liver ([7]; 6 h after IV administration): 49 ± 11 nCi/g | Radioactivity in Lungs ([7]; 6 h after IV administration): 993 ± 1605 nCi/g | Radioactivity in Plasma ([7]; 6 h after IV administration): 1.6 ± 0.5 nCi/mL | Radioactivity in Small Intestine ([7]; 6 h after IV administration): 62 ± 5.2 nCi/g | Radioactivity in Spleen ([7]; 6 h after IV administration): 82 ± 4.6 nCi/g | Radioactivity in Bone Marrow ([7]; 12 h after IV administration): 62 ± 9.4 nCi/g | Radioactivity in Heart ([7]; 12 h after IV administration): 28 ± 1.7 nCi/g | Radioactivity in Large Intestine ([7]; 12 h after IV administration): 83 ± 18 nCi/g | Radioactivity in Liver ([7]; 12 h after IV administration): 55 ± 7.4 nCi/g | Radioactivity in Lungs ([7]; 12 h after IV administration): 1438 ± 1218 nCi/g | Radioactivity in Plasma ([7]; 12 h after IV administration): 0.8 ± 0.2 nCi/mL | Radioactivity in Small Intestine ([7]; 12 h after IV administration): 41 ± 4.9 nCi/g | Radioactivity in Spleen ([7]; 12 h after IV administration): 77 ± 11 nCi/g | Radioactivity in Bone Marrow ([7]; 24 h after IV administration): 41 ± 6.8 nCi/g | Radioactivity in Heart ([7]; 24 h after IV administration): 24 ± 2.6 nCi/g | Radioactivity in Large Intestine ([7]; 24 h after IV administration): 48 ± 34 nCi/g | Radioactivity in Liver ([7]; 24 h after IV administration): 43 ± 4.0 nCi/g | Radioactivity in Lungs ([7]; 24 h after IV administration): 962 ± 99 nCi/g | Radioactivity in Plasma ([7]; 24 h after IV administration): 0.6 ± 0.1 nCi/mL | Radioactivity in Small Intestine ([7]; 24 h after IV administration): 47 ± 19 nCi/g | Radioactivity in Spleen ([7]; 24 h after IV administration): 85 ± 8.6 nCi/g
